Assay results from patent US20260232713A1, “PLECOMACROLIDE DERIVATIVES FOR MHC-I NEF DOWNMODULATION” (priority 2022, published 2026).
“Also recorded” adds a separate entry of the source. Where two headings read alike, the source gives them in different places.

Tests used:
HIV-Nef [1] = biological target: T1, HIV-Nef (Human immunodeficiency virus type 1, UniProt P03406); assay: Inhibition of HIV-Nef downmodulation of MHC-I HLA-A2 on the surface of HIV ΔGPE infected primary CD4+ T cells (flow cytometry); format: cell-based; conditions: for IC50 / Nef (Nef IC50): HLA-A2 surface expression, ΔGPE infected primary CD4+ T cells, 24 hours after treatment
T1 sequence (P03406 2-206): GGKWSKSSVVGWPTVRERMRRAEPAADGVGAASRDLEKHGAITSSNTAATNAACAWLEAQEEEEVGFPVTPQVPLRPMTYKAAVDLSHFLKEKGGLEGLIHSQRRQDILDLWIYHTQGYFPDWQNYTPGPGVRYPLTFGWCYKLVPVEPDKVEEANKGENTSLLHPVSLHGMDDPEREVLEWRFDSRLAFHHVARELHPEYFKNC

V-ATPase [2] = biological target: T2, V-ATPase (Homo sapiens, UniProt P27449); assay: Lysosomal acidification (Lysotracker mean fluorescence intensity) as indicator of V-ATPase activity in primary CD4+ T cells; format: cell-based
T2 construct: endogenous in cells; host or cells: primary CD4+ T cells (HIV ΔGPE infected) from donor PBMCs
Protocol: (§1) Inhibition of HIV-Nef was measured by assessing its capacity to downmodulate MHC-I HLA-A2 on the surface of primary CD4+ T cells 24-hours after treatment with each compound. V-ATPase inhibition was assessed at the same time point using lysosomal acidification as an indicator of V-ATPase activity. This was measured using a flow cytometric assay that quantified Lysotracker mean fluorescence intensity as previously described (Painter et al., 2020). Cell viability was measured at 24-hour and 72-hour time points using a previously described flow cytometric assay (Painter et al., 2020).
(§2) Anonymized leukocytes isolated by apheresis were obtained from New York Blood Center and peripheral blood mononuclear cells (PBMCs) were isolated by Ficoll-Paque Plus (17144002; GE Healthcare) centrifugation using SepMate tubes (85450; StemCell Technologies) according to the manufacturers protocol. […] Then, 20-24 hours post-PHA activation, 15 mL of R10/PHA medium is removed and replaced with 5 mL of R10+100u/mL Recombinant Human IL-2 (202|L010; R&D Systems). 48 hours after IL-2 stimulation, primary CD4^+ T cells were infected via spinoculation with previously described HIV ΔGPE construct.
(§3) 48 hours after spinoculation, cells were pooled and plated in flat bottom 96-well plate. […] Compounds were thawed at room temperature and diluted in R10 medium to 2× starting concentration.
(§4) All ΔGPE infected cells were collected 24 hours after treatment.
(§5) All statistical analyses were performed using GraphPad Prism software. Curves were generated using GraphPad Prism software using [Inhibitor] vs. response with variable slope (four parameters).

primary CD4+ T cells = assay: in vitro; conditions: for Viability:Nef (therapeutic window separating Nef IC50 and TC50): ratio TC50 to Nef IC50; for CC50: read-out: Viability (TC50), mock primary CD4+ T cells, 72 hours after treatment
Protocol: as §1, §2, §3, §4
(§6) All Mock cells were collected 72 hours after treatment.
as §5

in vitro = conditions: human
Protocol: as §1, §2, §3, §4, §6, §5

HIV-Nef [3] = biological target: T1, HIV-Nef; conditions: literature report; cited from earlier work
V-ATPase [4] = conditions: literature report; cited from earlier work
[5] = Lysotracker Red, ΔGPE infected primary CD4+ T cells, 24 hours after treatment, read-out: Lysotracker (V-ATPase IC50, lysosomal neutralization)
[6] = Lysotracker Red, ΔGPE infected primary CD4+ T cells, 24 hours after treatment

T2 sequence (P27449 whole entry, looked up): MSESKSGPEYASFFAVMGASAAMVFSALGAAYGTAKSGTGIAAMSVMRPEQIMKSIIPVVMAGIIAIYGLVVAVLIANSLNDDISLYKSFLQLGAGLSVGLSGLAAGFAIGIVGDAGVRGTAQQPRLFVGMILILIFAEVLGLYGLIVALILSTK

Compound	Viability:Nef (therapeutic window separating Nef IC50 and TC50) (primary CD4+ T cells)	IC50 (V-ATPase [2])	CC50 (in vitro)	other results
21-Deoxy CMF [Compound S24]	2.2 fold			IC50 (HIV-Nef [1]): 4.5 nM; IC50 (V-ATPase [2]; [5]): 32 nM; CC50 (primary CD4+ T cells): 9.4 nM
CNC(=O)O[C@@H](CC(C)C)c1nc([C@H]2OC(=O)/C(C)=C/C/C(C)=C/[C@@H](O)[C@@H](C)\C=C(C)/C=C(C)\C=C\[C@@H](O)[C@H](C)[C@H](OC)/C(C)=C/C=C/[C@@H]2C)cs1 [Compound 3, Archazolid A, reference compound]				IC50 (HIV-Nef [1]): 0.47 nM; IC50 (V-ATPase [2]; [5]): 1.6 nM
CO/C1=C\C(C)=C\[C@@H](C)[C@@H](O)[C@@H](C)C/C(C)=C/C=C/[C@H](OC)[C@@H]([C@@H](C)[C@@H](O)[C@H](C)[C@@]2(OC)C[C@@H](O)[C@H](C)C(C(C)C)O2)OC1=O (some centres unmarked) [Compound S4, Bafilomycin A2]	1.2 fold	24 nM	13 nM	
CO/C1=C\C(C)=C\[C@@H](C)[C@@H](O)[C@@H](C)C/C(C)=C/C=C/[C@H](OC)[C@@H]([C@@H](C)[C@@H](O)[C@H](C)[C@H]2C[C@@H](OC)[C@H](C)[C@@H](C(C)C)O2)OC1=O [Compound S6]	1.4 fold	52 nM	28 nM	
CO/C1=C\C(C)=C\[C@@H](C)[C@@H](O)[C@@H](C)C/C(C)=C/C=C/[C@H](OC)[C@@H]([C@@H](C)[C@@H](O)[C@H](C)[C@@]2(O)C[C@@H](OC(C)=O)[C@H](C)C(C(C)C)O2)OC1=O (some centres unmarked) [Compound S9]	2.4 fold	23 nM	10 nM	
CCCCCCCCC(=O)O[C@@H]1C[C@](O)([C@@H](C)[C@H](O)[C@H](C)[C@H]2OC(=O)/C(OC)=C/C(C)=C/[C@@H](C)[C@@H](O)[C@@H](C)C/C(C)=C/C=C/[C@@H]2OC)O[C@H](C(C)C)[C@H]1C [Compound S11]	1.1 fold	150 nM	140 nM	
C=C/C=C/C(=O)O[C@@H]1C[C@](O)([C@@H](C)[C@H](O)[C@H](C)[C@H]2OC(=O)/C(OC)=C/C(C)=C/[C@@H](C)[C@@H](O)[C@@H](C)C/C(C)=C/C=C/[C@@H]2OC)O[C@H](C(C)C)[C@H]1C [Compound S12]	1.4 fold	24 nM	22 nM	
COC1=CC(C)=CC(C)C(O)C(C)CC(C)=CC=CC(OC)C(C(C)C(O)C(C)C2(O)CC(OC3OC(C)C(O)C(O)C3OC)C(C)C(C(C)C)O2)OC1=O (centres unmarked) [Compound S14, Leucanicidin, reference compound]	1.3 fold	2.5 nM	1.4 nM	
CC=CC=CC1OC(O)(C(C)C(O)C(C)C2OC(=O)C(OC)=CC(C)=CC(C)C(O)C(C)CC(C)=CC=CC2OC)CC(OC2CC(O)C(O)C(C)O2)C1C (centres unmarked) [Compound S15, PC-766B, reference compound]	1.1 fold	2.5 nM	1.3 nM	
CO/C1=C\C(C)=C\[C@@H](C)C(=O)[C@@H](C)C/C(C)=C/C=C/[C@H](OC)[C@@H]([C@@H](C)[C@@H](O)[C@H](C)[C@@]2(O)C[C@@H](O)[C@H](C)[C@@H](C(C)C)O2)OC1=O [Compound S17]		> 1000 nM		Nef (Nef IC50) (HIV-Nef [1]): abrogation of activity at all concentrations tested; also recorded: above the activity threshold; Lysotracker (V-ATPase IC50, lysosomal neutralization) (V-ATPase [2]; [6]): above the activity threshold; CC50 at 72 h (in vitro): > 1000 nM
CO/C1=C\C(C)=C\[C@@H](C)C(=O)[C@@H](C)C/C(C)=C/C=C/[C@H](OC)[C@@H]([C@@H](C)[C@@H](O)[C@H](C)[C@@]2(O)CC(=O)[C@H](C)[C@@H](C(C)C)O2)OC1=O [Compound S18]		> 1000 nM	> 1000 nM	Nef (Nef IC50) (HIV-Nef [1]): above the activity threshold; Lysotracker (V-ATPase IC50, lysosomal neutralization) (V-ATPase [2]; [6]): above the activity threshold
CO/C1=C\C(C)=C\[C@@H](C)[C@@H](OC(C)=O)[C@@H](C)C/C(C)=C/C=C/[C@H](OC)[C@@H]([C@@H](C)[C@@H](O)[C@H](C)[C@@]2(O)C[C@@H](OC(C)=O)[C@H](C)C(C(C)C)O2)OC1=O (some centres unmarked) [Compound S19]	1.8 fold	530 nM	440 nM	
C/C=C/[C@H]1O[C@@H]([C@@H](C)[C@H](O)[C@H](C)[C@H]2OC(=O)/C(OC)=C/C(C)=C/[C@@H](C)[C@@H](O)[C@@H](CC)[C@@H](O)[C@H](C)C/C(C)=C/C=C/[C@@H]2O)C[C@@H](O)[C@@H]1C [Compound S25, 21-Deoxy-16-Hydroxy CMF]				IC50 (HIV-Nef [1]): 400 nM; Fold reduction of activity compared to 6 (HIV-Nef [1]; comparator CMF (6)): over 200 fold; IC50 (V-ATPase [2]; [5]): > 1000 nM; CC50 (primary CD4+ T cells): > 1000 nM
C#CCCC(=O)O[C@@H]1C[C@H]([C@@H](C)[C@H](O)[C@H](C)[C@H]2OC(=O)/C(OC)=C/C(C)=C/[C@@H](C)[C@@H](O)[C@@H](C)C/C(C)=C/C=C/[C@@H]2OC)O[C@H](C(C)C)[C@H]1C [Compound S28]	1.7 fold	61 nM	36 nM	
C/C=C/CC(=O)O[C@@H]1C[C@](O)([C@@H](C)[C@H](O)[C@H](C)[C@H]2OC(=O)/C(OC)=C/C(C)=C/[C@@H](C)[C@@H](O)[C@@H](C)C/C(C)=C/C=C/[C@@H]2OC)OC(C(C)C)[C@H]1C (some centres unmarked) [Compound S29]	1.6 fold	47 nM	39 nM	
CC[C@H]1OC(=O)[C@H](C)[C@@H](O)[C@H](C)[C@@H](O)[C@@H](C)C[C@@H](C)C(=O)[C@H](C)[C@@H](O)[C@H]1C [Compound S31, 6-deoxyerythronolide B, reference compound]				IC50 (HIV-Nef [1]): > 1000 nM; IC50 (V-ATPase [2]; [5]): > 1000 nM; CC50 (primary CD4+ T cells): > 1000 nM
C/C=C/[C@H]1O[C@@](O)([C@@H](C)[C@H](O)[C@H](C)[C@H]2OC(=O)/C(OC)=C/C(C)=C/[C@@H](C)[C@@H](O)[C@@H](CC)[C@@H](O)[C@H](C)C/C(C)=C/C=C/[C@@H]2OC)C[C@@H](O[C@@H]2C[C@H](OC(C)=O)[C@@H](OC(C)=O)[C@H](C)O2)[C@@H]1C [Compound S48, 3′,4-diacetyl CMC]	1.8 fold	3.1 nM	1.3 nM	
C/C=C/[C@H]1O[C@@](O)([C@@H](C)[C@H](O)[C@H](C)[C@H]2OC(=O)/C(OC)=C/C(C)=C/[C@@H](C)[C@@H](O)[C@@H](CC)[C@@H](OC(C)=O)[C@H](C)C/C(C)=C/C=C/[C@@H]2OC)C[C@@H](O[C@@H]2C[C@H](OC(C)=O)[C@@H](OC(C)=O)[C@H](C)O2)[C@@H]1C [Compound S49, 3′,4′,9-triaceyl CMC]	1.8 fold	11 nM	4.5 nM	
C/C=C/[C@H]1O[C@@](O)([C@@H](C)[C@H](O)[C@H](C)[C@H]2OC(=O)/C(OC)=C/C(C)=C/[C@@H](C)[C@@H](O)[C@@H](CC)[C@@H](O)[C@H](C)C/C(C)=C/C=C/[C@@H]2OC)C[C@@H](OC(C)=O)[C@@H]1C [Compound S50, 23-Acetyl CMF]	5.8 fold	6.1 nM	6.1 nM	
CO/C1=C\C(C)=C\[C@@H](C)[C@@H](O)[C@@H](C)C/C(C)=C/C=C/[C@H](OC)[C@@H]([C@@H](C)[C@@H](O)[C@H](C)[C@@]2(O)C[C@@H](OC=O)[C@H](C)[C@@H](C(C)C)O2)OC1=O [Compound S61]	2.6 fold	12 nM	7.3 nM	
C/C=C/[C@H]1O[C@@H]([C@@H](C)[C@H](O)[C@H](C)[C@H]2OC(=O)/C(OC)=C/C(C)=C/[C@@H](C)[C@@H](O)[C@@H](CC)[C@@H](O)[C@H](C)C/C(C)=C/C=C/[C@@H]2OC)C[C@@H](O[C@@H]2C[C@H](O)[C@@H](O)[C@H](C)O2)[C@@H]1C [Compound S62, 21-Deoxy CMC]	1.8 fold	6 nM	2 nM	
Elaiophylin [Compound S16, reference compound]				IC50 (HIV-Nef [1]): 250 nM; Fold decrease in Nef potency compared to 2 (HIV-Nef [1]; […]): 20 fold; CC50 (primary CD4+ T cells): 160 nM
bafilomycin D				Potency as a Nef inhibitor (previously reported) (HIV-Nef [3]): very poor potency; V-ATPase inhibition (previously reported) (V-ATPase [4]): low level V-ATPase inhibition
